From patent US10954200B1, “Anti-angiogenesis compound” (KING SAUD UNIVERSITY, priority 2019, dated 2021)

What was measured:
A549 cells [1] = assay: Trypan blue dye exclusion assay, A549; format: cell-based; conditions: Homo sapiens, A549, 48 h; read-out: IC50 value (μM) against A549 cells, Trypan blue assay
Procedure: (§1) Breast cancer cells (MCF-7), lung cancer cells (A549), Hela cells, and peripheral blood mononuclear cells (PBMC) were purchased from the National Center for Cell Sciences (NCCS), Pune, India. The cancer cells were maintained in Dulbecco's modified eagles medium (DMEM), supplemented with 2 mM 1-glutamine and balanced salt solution (BSS), adjusted to contain 1.5 g/L Na2CO3, 0.1 mM nonessential amino acids, 1 mM sodium pyruvate, 2 mM 1-glutamine, 1.5 g/L glucose, 10 mM (4-(2-hydroxyethyl)-1-piperazineethane sulfonic acid) (HEPES), and 10% fetal bovine serum (GIBCO, USA). Penicillin and streptomycin (100 IU/100 μg) were adjusted to 1 mL/L. The cells were maintained at 37° C. with 5% CO2 in a humidified CO2 incubator.
(§2) The cytotoxic effects of synthesized compounds on various types of cancer cells were determined by trypan blue dye exclusion assay. The cultured cells were treated with the synthesized compounds and incubated for 48 h. After the incubation period, the cells were detached by 0.5% trypan-EDTA solution, harvested by centrifugation at 3000 rpm for 5 minutes and diluted in 1 ml of PBS. […] About 20 μl of cell suspensions were carefully and continuously filled in the haemocytometer chamber and viable cells were counted in 1×1 mm squares, four chambers and the average number of cells per square determined. Total viable cells were determined using the following formula, […]

PBMC cells [2] = assay: MTT cell viability assay, PBMC; format: cell-based, human; conditions: 48 h, read-out: IC50 value (μM) against PBMC cells, MTT assay
Procedure: as §1
(§3) The inhibitory concentration (IC50) value was evaluated using an MTT [3-(4,5-dimethylthiazol-2-yl)-2,5-diphenyltetrazolium bromide] assay. Cancer cells were grown (1×10^4 cells/well) in a 96-well plate for 48 h to 75% confluence. The medium was replaced with fresh medium containing serially diluted synthesized compounds, and the cells were further incubated for 48 h. The culture medium was removed, and 100 μL of the MTT [3-(4,5-dimethylthiozol-2-yl)-3,5-diphenyl tetrazolium bromide] (Hi-Media, Mumbai, India) solution was added to each well and incubated at 37° C. for 4 h. […] The optical density was measured at 620 nm in an ELISA multiwell plate reader (Thermo Multiskan EX, USA). […]

A549 cells [3] = assay: Cancer cell migration (scratch wound) assay; format: cell-based; conditions: Homo sapiens, 48 h
Procedure: The A549 cells were cultured in a six well plate until they reached a confluence of 60-70%. A scratch was made to form a wound using a micropipette tip and the monolayer was washed with growth medium. Then, 2 ml medium containing different concentrations of test drugs was added to the respective wells, incubated for 48 h, fixed with chilled 70% ethanol and stained with crystal violet (0.4 g/l). Images were taken from random fields at regular time intervals using an inverted microscope (Bresser, Biolux). Finally, the percentage of cell migration was calculated by comparing the final gap width to initial gap width.

[4] = test system: EAC induced angiogenesis in peritoneum; assay: Peritoneal angiogenesis assay; format: in vivo, Swiss albino mice
Procedure: (§4) The effect of potent synthesized compound BAMC on the modulation of neovessel and tumor growth was verified in EAC bearing animals. The EAC tumor bearing mice were grouped separately at two different concentrations (25 and 50 mg/Kg, b.w/i.p) of potent synthesized compounds and individually the groups were treated using a 26 gauge needle. Then, after the onset of tumor on the 4th day, three doses were given on every alternative day. The growth of the tumor was monitored by taking the body weight of the animals every day. Then, control animals were injected with 0.2 ml of saline (i.p) on every alternative day. In each treatment, at least six mice were taken and each experiment was repeated thrice. After the completion of treatment, the animals from each group were sacrificed on the 10th day and the EAC cells along with ascites fluid were harvested and the quantity was recorded. The peritoneum of the mice was cut open and the inner lining of the peritoneal cavity was examined for angiogenesis (vasculature) in compound-treated, tumor bearing mice. Finally, the inner lining of normal mice was also examined for vasculature and photographed using Sony steady shot DSC-W610 camera. These sets of animals were used to study the survivability analysis after treatment until their death.

caspase-3 = assay: Caspase-3 colorimetric assay; format: cell-based, human
Procedure: Using CPP32/Caspase-3 Colorimetric Assay Kit, the activated caspase was estimated as per manufacturer's protocol. The buffers used in the experiment were those supplied along with the kit. A549 cells (8×10^5 per 12.5 cm^2 culture flasks) were seeded with their respective growth medium and incubated for 24 h at 37° C. with/without 5% CO2. Then, confluent cells were added with the respective drug medium while maintaining an untreated group as a control. Cultures were incubated for 6 h, maintaining the same conditions, 0.1 mM Hydrogen Peroxide (H2O2) and 10 μM standard drug were used as positive control for activation of caspase-3. After treatment incubation, the detached cells in the supernatant were collected, and the adherent cells were trypsinized to add into the respective tubes. Subsequently, tubes were centrifuged at 1500 rpm for 10 min to acquire a cell pellet. […] The […] was transferred to fresh tubes and the protein concentrations of samples were determined by employing Bradford assay. […] Post-incubation, the plate was read at 405 nm in a Dynex Opsys MRTM Microplate Reader (Dynex Technologies, VA, USA). Percentage caspase-3 activation was calculated using the following formula: % Caspase-3 activation=[(At−Ac)/Ac]×100
“At” represents the mean absorbance of test wells and “Ac” represents the mean absorbance of the control wells.

NIH-3T3 cells = assay: Toxicity to NIH-3T3 cells; format: cell-based
EAC cells [5] = assay: Trypan blue dye exclusion assay, EAC; format: cell-based, mouse; conditions: 48 h, read-out: IC50 value (μM) against EAC cells, Trypan blue assay
Procedure: The cytotoxic effects of synthesized compounds on various types of cancer cells were determined by trypan blue dye exclusion assay. The cultured cells were treated with the synthesized compounds and incubated for 48 h. After the incubation period, the cells were detached by 0.5% trypan-EDTA solution, harvested by centrifugation at 3000 rpm for 5 minutes and diluted in 1 ml of PBS. Then, 10 μl of trypan blue dye solution was added to each sample and cells were re-suspended. About 20 μl of cell suspensions were carefully and continuously filled in the haemocytometer chamber and viable cells were counted in 1×1 mm squares, four chambers and the average number of cells per square determined. Total viable cells were determined using the following formula,
The values were plotted in MS excel version 8.1, graphed and the inhibitory concentration-50 (IC50) values were estimated.

EAC tumor = assay: In vivo EAC ascites tumor growth; conditions: for decrease of tumor volume, % of inhibition: three doses on alternate days
Procedure: The EAC tumor was obtained from Mahajana Education Center, BOC, in Biotechnology. Microbiology& Biochemistry Mahajana College, Mysore University, Mysore, Karnataka, India, and the same was induced into adult Swiss albino mice i.p and left for the growth.
The EAC tumor bearing mice (donor) were taken on the 12th day after tumor transplantation and the ascites fluid was drawn using an 18 gauge needle into a sterile syringe. Then the tumor cell viability was tested by trypan blue exclusion assay and the cells were counted using a haemocytometer. The ascites fluid was suitably diluted to get a concentration of 5×10^6/0.2 ml of tumor cell suspension. This was injected into the i.p cavity of Swiss mice to obtain ascites tumor and the process was repeated every 12 days.
Ascites tumor was obtained by injecting 5×10^6 viable tumor cells into i.p cavity of Swiss mice. Tumor growth was followed by recording the animal weights. These cells grew in the peritoneum of mice, forming an ascites tumor with enormous abdominal swelling and showing a profound increase in body weight. The EAC cells began their exponential growth phase from the 7th day after tumor cell injection and the animals succumbed to the ascites tumor burden between 16 to 20 days after injection of tumor cells.
as §4

A549 cells [6] = assay: MTT cell viability assay, A549; format: cell-based; conditions: Homo sapiens, A549, 48 h; read-out: IC50 value (μM) against A549 cells, MTT assay
Procedure: as §1, §3

cancer cells = assay: MTT and trypan blue assays, overall IC50; format: cell-based; conditions: read-out: anti-angiogenesis effect, IC50 values
Procedure: (§5) The inhibitory concentration (IC50) value was evaluated using an MTT [3-(4,5-dimethylthiazol-2-yl)-2,5-diphenyltetrazolium bromide] assay. Cancer cells were grown (1×10^4 cells/well) in a 96-well plate for 48 h to 75% confluence. The medium was replaced with fresh medium containing serially diluted synthesized compounds, and the cells were further incubated for 48 h. The culture medium was removed, and 100 μL of the MTT [3-(4,5-dimethylthiozol-2-yl)-3,5-diphenyl tetrazolium bromide] (Hi-Media, Mumbai, India) solution was added to each well and incubated at 37° C. for 4 h. After removal of the supernatant, 50 μL of DMSO was added to each of the wells and incubated for 10 min to solubilize the formazan crystals. The optical density was measured at 620 nm in an ELISA multiwell plate reader (Thermo Multiskan EX, USA). The OD value was used to calculate the percentage of viability using the following formula.
The cytotoxic effects of synthesized compounds on various types of cancer cells were determined by trypan blue dye exclusion assay. […] About 20 μl of cell suspensions were carefully and continuously filled in the haemocytometer chamber and viable cells were counted in 1×1 mm squares, four chambers and the average number of cells per square determined. Total viable cells were determined using the following formula, […]

MCF-7 cells [7] = assay: Colony formation assay; format: cell-based, human; conditions: 5, 10, 20 μM, 6 hours pretreatment, 12 days
Procedure: Long-term effects of the active compound were determined by colony formation with minor modifications. […] Surviving colonies were fixed and stained by using 0.5% crystal violet. Visible colonies were observed and colonies were counted and photographed.

MCF-7 cells [8] = assay: Trypan blue dye exclusion assay, MCF-7; format: cell-based; conditions: Homo sapiens, MCF7; MCF-7, 48 h; read-out: IC50 value (μM) against MCF-7 cells, Trypan blue assay
Procedure: as §1, §2

[9] = test system: genomic DNA of cancer cells; assay: DNA fragmentation assay (apoptotic ladder); format: cell-based; conditions: treated vs untreated cells
Procedure: DNA damaging studies were carried out according to previously described methods. The DNA damaging activity of the compound on genomic DNA of both control and treated cells were evaluated by Phenol:Chloroform method. Briefly, the cells were first lysed using lysis buffer (50 mM Tris-Hcl, 0.5% SDS, pH 8.0) and incubated for 30 minutes at […]. The cell lysate was precipitated by using potassium acetate (8M) and incubated at 4° C. for 1 hr. The supernatant was mixed with phenol:Chloroform:isoamylalcohol at 25:24:1 ratio. This step was repeated thrice. DNA was precipitated by adding ice cold alcohol and precipitated DNA was air dried and dissolved by using appropriate amounts of TE Buffer (pH 8.0). Precipitated DNA was subjected to RNase digestion (2 μg/mL) for 1 hr at 37° C. The obtained DNA was quantified by using nanodrop (Eppendrof Ag 22331 Hamburg 6135EM402331) and equal amounts of (50 μg) of DNA were loaded to 1% agarose gel, observed under uv-trans illuminator, and documented.

Hela cells [10] = assay: Trypan blue dye exclusion assay, Hela; format: cell-based; conditions: Homo sapiens, 48 h, read-out: IC50 value (μM) against Hela cells, Trypan blue assay
Procedure: as §1, §2

PBMC cells [11] = assay: Trypan blue dye exclusion assay, PBMC; format: cell-based, human; conditions: 48 h, read-out: IC50 value (μM) against PBMC cells, Trypan blue assay
Procedure: as §1, §2

MCF-7 cells [12] = assay: MTT cell viability assay, MCF-7; format: cell-based; conditions: Homo sapiens, MCF7; MCF-7, 48 h; read-out: IC50 value (μM) against MCF-7 cells, MTT assay
Procedure: as §1, §3

Hela cells [13] = assay: MTT cell viability assay, Hela; format: cell-based; conditions: Homo sapiens, 48 h, read-out: IC50 value (μM) against Hela cells, MTT assay
Procedure: as §1, §3

EAC cells [14] = assay: MTT cell viability assay, EAC; format: cell-based, mouse; conditions: 48 h, read-out: IC50 value (μM) against EAC cells, MTT assay
Procedure: as §5

## Cc1ccccc1OCC(=O)NNC(=O)C1CN(Cc2ccccc2)CCO1 (centres unmarked) [BAMC, 4-Benzyl-N′-(2-(o-tolyloxy)acetyl) morpholine-2-carbohydrazide]
A549 cells [1]
  IC50: 5.8 ± 0.7 µM
PBMC cells [2]; Homo sapiens
  IC50: 89.9 ± 3.5 µM
A549 cells [3]; A549, 10 μM
  inhibition at 10 µM: 13%
A549 cells [3]; A549, 20 μM
  inhibition at 20 µM: 72.3%
[4]; first value of 'respectively' (25 mg/kg)
  regression of EAC induced angiogenesis in peritoneum: 40%
[4]; second value of 'respectively' (50 mg/kg)
  regression of EAC induced angiogenesis in peritoneum: 15%
caspase-3; MCF-7, BAMC concentration not stated
  percentage of caspase-3 activation: 84.5%
NIH-3T3 cells
  toxicity to NIH-3T3 cells: ~97 µM
EAC cells [5]; Mus musculus
  IC50: 6.8 ± 1.4 µM
EAC tumor; EAC mice, 25 mg/kg bw i.p.
  decrease of tumor volume, % of inhibition: 74.35%
EAC tumor; EAC mice, 50 mg/kg bw i.p.
  decrease of tumor volume, % of inhibition: 80.2%
EAC tumor; EAC mice, 25 and 50 mg/kg
  adverse effect on normal lymphoid organs (morphology of kidney, liver, spleen): did not show any symptoms of adverse effect
EAC tumor; EAC mice, 25 and 50 mg/kg, concentration dependent
  cell density reduction: six fold reduction
EAC tumor; EAT bearing mice, treated vs control
  body weight of tumor bearing mice: significant decrease in body weight
A549 cells [6]
  IC50: 5.6 ± 1 µM
Cancer cells
  IC50: ~5.5 µM
MCF-7 cells [7]
  colony formation (colonogenic efficiency): visibly diminished the colonogenic efficiency of MCF-7 cells
MCF-7 cells [8]
  IC50: 4.6 ± 1.1 µM
[9]
  DNA fragmentation (apoptotic ladder), agarose gel: typical “ladder (A)” formation of DNA
Hela cells [10]
  IC50: 5.2 ± 1.3 µM
PBMC cells [11]; Homo sapiens
  IC50: 85.7 ± 0.7 µM
MCF-7 cells [12]
  IC50: 4.5 ± 2 µM
Hela cells [13]
  IC50: 4.9 ± 0.2 µM
EAC cells [14]; Mus musculus
  IC50: 6.7 ± 1.8 µM

## N.N.[Cl][Pt][Cl] [Cisplatin, reference compound]
PBMC cells [2]
  IC50: 91.4 ± 1.1 µM
EAC cells [5]
  IC50: 4.4 ± 1.3 µM
PBMC cells [11]
  IC50: 96.1 ± 0.8 µM
EAC cells [14]
  IC50: 4.9 ± 1.1 µM

## OO [H2O2, Hydrogen Peroxide, reference compound]
caspase-3; MCF-7, 0.1 mM, positive control
  percentage of caspase-3 activation: 91.1%
